What was measured:
eNOS promoter = assay: Activation of eNOS transcription (eNOS promoter-luciferase reporter gene assay); format: cell-based, human; settings: 18 h incubation; for EC50: EC50 of transcription induction ratio vs compound concentration, determined graphically, human endothelial cell line stably transfected with eNOS promoter-luciferase construct; for maximal fold induction / TIR(max): maximum transcription induction ratio (luciferase activity with compound / solvent alone), human endothelial cell line with eNOS promoter-luciferase construct; for maximal fold induction: read-out: TIR(max)
In short: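 Human endothelial cell line stably carrying a 3.5 kB eNOS promoter fragment driving firefly luciferase, treated 18 h with compound (0.5% DMSO final). Luciferase induction relative to solvent gave transcription induction ratio versus concentration; EC50 determined graphically.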

SMILES	EC50 (eNOS promoter)	melting point	TIR(max) (eNOS promoter)	maximal fold induction (eNOS promoter)
Cc1nc2ccc(C(=O)N[C@H]3CCCc4ccccc4C3)cc2[nH]1 [Compound 7, (S)-2-METHYL-3H-BENZOIMIDAZOLE-5-CARBOXYLIC ACID (6,7,8,9-TETRAHYDRO-5H-BENZOCYCLOHEPTEN-6-YL)-AMIDE]	75 nM	206 °C	–	3.3
COc1ccc(C(=O)NC2CCCc3ccccc3C2)c(OC)n1 (stereo not shown) [Compound 15, 2,6-DIMETHOXY-N-(6,7,8,9-TETRAHYDRO-5H-BENZOCYCLOHEPTEN-6-YL)-NICOTINAMIDE]	779 nM	–	–	3.1
Cc1nc(C)c(C(=O)NC2CCCc3ccccc3C2)o1 (stereo not shown) [Compound 58, 2,4-DIMETHYL-OXAZOLE-5-CARBOXYLIC ACID (6,7,8,9-TETRAHYDRO-5H-BENZOCYCLOHEPTEN-6-YL)-AMIDE]	19000 nM	–	–	2.5
O=C(NC1CCCc2ccccc2C1)c1ccc(N2CCOCC2)nc1 (stereo not shown) [Compound 101, 6-MORPHOLIN-4-YL-N-(6,7,8,9-TETRAHYDRO-5H-BENZOCYCLOHEPTEN-6-YL)-NICOTINAMIDE]	6000 nM	–	–	3.1
O=C(NC1CCCc2ccccc2C1)c1ccc2cc[nH]c2c1 (stereo not shown) [Compound 20, 1H—INDOLE-6-CARBOXYLIC ACID (6,7,8,9-TETRAHYDRO-5H-BENZOCYCLOHEPTEN-6-YL)-AMIDE]	16 nM	–	–	3.1
O=C(NC1CCCc2ccccc2C1)c1ccc2[nH]nnc2c1 (stereo not shown) [Compound 13, 1H-BENZOTRIAZOLE-5-CARBOXYLIC ACID (6,7,8,9-TETRAHYDRO-5H-BENZOCYCLOHEPTEN-6-YL)-AMIDE]	8800 nM	–	–	2
NS(=O)(=O)c1cc(C(=O)NC2CCCc3ccccc3C2)ccc1Cl (stereo not shown) [Compound 138, 4-CHLORO-3-SULFAMOYL-N-(6,7,8,9-TETRAHYDRO-5H-BENZOCYCLOHEPTEN-6-YL)-BENZAMIDE]	10000 nM	–	–	3
Nc1nccnc1C(=O)NC1CCCc2ccccc2C1 (single isomer, unassigned) [Compound 45, 3-AMINO-PYRAZINE-2-CARBOXYLIC ACID (6,7,8,9-TETRAHYDRO-5H-BENZOCYCLOHEPTEN-6-YL)-AMIDE]	60 nM	–	–	2.9
CCOc1ccc(C(=O)NC2CCCc3ccccc3C2)cc1 (stereo not shown) [Compound 5, 4-ETHOXY-N-(6,7,8,9-TETRARYDRO-5H-BENZOCYCLOHEPTEN-6-YL)-BENZAMIDE]	< 80 nM	–	3.0	–
Cc1cc(C(=O)NC2CCCc3ccccc3C2)c(C)n1Cc1ccncc1 (single isomer, unassigned; (+)) [Compound 47, (+)-2,5-DIMETHYL-1-PYRIDIN-4-YLMETHYL-1H-PYRROLE-3-CARBOXYLIC ACID (6,7,8,9-TETRAHYDRO-5H-BENZOCYCLOHEPTEN-6-YL)-AMIDE]	20 nM	–	–	3.4

Further lines, with some results ahead:

EC50 (eNOS promoter)	melting point	TIR(max) (eNOS promoter)	SMILES	maximal fold induction (eNOS promoter)
20 nM	165 °C	–	O=C(NC1CCCc2ccccc2C1)c1ccc(F)cc1 (stereo not shown) [Compound 1, 4-FLUORO-N-(6,7,8,9-TETRAHYDRO-5H-BENZOCYCLOHEPTEN-6-YL)-BENZAMIDE]	3.3
6000 nM	156 °C	–	O=C(NC1CCCc2ccccc2C1O)c1ccc(F)cc1 (stereo not shown) [Compound 2, 4-FLUORO-N-(5-HYDROXY-6,7,8,9-TETRAHYDRO-5H-BENZOCYCLOHEPTEN-6-YL)-BENZAMIDE]	2.2
< 80 nM	–	–	O=C(NC1CCCc2ccccc2C1)c1ccc(F)cc1F (stereo not shown) [Compound 6, 2,4-DIFLUORO-N-(6,7,8,9-TETRAHYDRO-5H-BENZOCYCLOHEPTEN-6-YL)-BENZAMIDE]	3
1300 nM	–	–	Cc1ccc(S(C)(=O)=O)cc1C(=O)NC1CCCc2ccccc2C1 (stereo not shown) [Compound 140, 5-METHANESULFONYL-2-METHYL-N-(6,7,8,9-TETRAHYDRO-5H-BENZOCYCLOHEPTEN-6-YL)-BENZAMIDE]	3
589 nM	–	–	CNc1cc(C(=O)NC2CCCc3ccccc3C2)ccc1C (stereo not shown) [Compound 135, 4-METHYL-3-METHYLAMINO-N-(6,7,8,9-TETRAHYDRO-5H-BENZOCYCLOHEPTEN-6-YL)-BENZAMIDE]	3
20 nM	–	3.5	Cc1c(C(=O)NC2CCCc3ccccc3C2)cnn1-c1ccccc1 (stereo not shown) [Compound 30, 5-METHYL-1-PHENYL-1H-PYRAZOLE-4-CARBOXYLIC ACID (6,7,8,9-TETRARYDRO-5H-BENZOCYCLOHEPTEN-6-YL)-AMIDE]	–
83 nM	–	–	O=C(NC1CCCc2ccccc2C1)c1cccc2snnc12 (stereo not shown) [Compound 22, BENZO[1,2,3]THIADIAZOLE-4-CARBOXYLIC ACID-N-(6,7,8,9-TETRAHYDRO-5H-BENZOCYCLOHEPTEN-6-YL)-AMIDE]	3.1

Source: patent publication US7709478B2, “Acylated 6,7,8,9-tetrahydro-5H-benzocycloheptenyl amines and their use as pharmaceutical agents” (sanofi-aventis Deutschland GmbH, priority 2001, dated 2010)
